What was measured:
[1] = biological target: T1, human vasopressin V1b receptor (Homo sapiens, UniProt P47901); test: Vasopressin V1b receptor binding assay; details: CHO-K1 membranes, 3H-AVP displacement
T1 construct: expressed in transfected cells; host or cells: CHO-K1 (cell line hV1b_3H2_CHO), membrane preparation
T1 sequence (P47901 1-424): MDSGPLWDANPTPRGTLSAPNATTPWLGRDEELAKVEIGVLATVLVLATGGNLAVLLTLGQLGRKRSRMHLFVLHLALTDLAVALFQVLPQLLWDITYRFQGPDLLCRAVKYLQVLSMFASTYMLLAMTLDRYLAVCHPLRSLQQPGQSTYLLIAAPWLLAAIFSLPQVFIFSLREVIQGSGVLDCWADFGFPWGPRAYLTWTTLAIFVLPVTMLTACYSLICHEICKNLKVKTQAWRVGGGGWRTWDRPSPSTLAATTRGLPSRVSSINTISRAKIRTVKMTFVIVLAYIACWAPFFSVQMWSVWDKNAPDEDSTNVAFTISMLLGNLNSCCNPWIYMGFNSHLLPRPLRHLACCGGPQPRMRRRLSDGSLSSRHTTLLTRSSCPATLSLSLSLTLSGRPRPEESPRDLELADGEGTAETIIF
Procedure: 1. Vasopressin V1b Receptor Binding Assay:
The test substances were dissolved in a concentration of 10^−2 M in DMSO and further diluted to 5×10^−4 M to 5×10^−3 M. These serial DMSO predilutions were diluted 1:10 with assay buffer. The substance concentration was further diluted 1:5 in the assay mixture (2% DMSO in the mixture).
(§1) CHO-K1 cells with stably expressed human vasopressin V1b receptor (clone 3H2) were harvested and homogenized in 50 mM Tris-HCl and in the presence of protease inhibitors (Roche complete Mini #1836170) using a Polytron homogenizer at intermediate setting for 2×10 seconds, and subsequently centrifuged at 40 000×g for 1 h. The membrane pellet was again homogenized and centrifuged as described and subsequently taken up in 50 mM Tris-HCl, pH 7.4, homogenized and stored in aliquots frozen in liquid nitrogen at −190° C.
(§2) The binding assay was carried out by the method based on that of Tahara et al. (Tahara A et al., Brit. J. Pharmacol. 125, 1463-1470 (1998)).
(§3) The incubation buffer was: 50 mM Tris, 10 mM MgCl2, 0.1% BSA, pH 7.4.
In the assay mixture (250 μl), membranes (50 μg/ml protein in incubation buffer) from CHO-K1 cells with stably expressed human V1b receptors (cell line hV1b—3H2_CHO) were incubated with 1.5 nM ^3H-AVP (8-Arg-vasopressin, PerkinElmer #18479) in incubation buffer (50 mM Tris, 10 mM MgCl2, 0.1% BSA, pH 7.4) (total binding) or additionally with increasing concentrations of test substance (displacement experiment). The nonspecific binding was determined with […] (Bachem #H1780). All determinations were carried out as triplicate determinations. After incubation (60 minutes at room temperature), the free radioligand was filtered off by vacuum filtration (Skatron cell harvester 7000) through Wathman GF/B glass fiber filter mats, and the filters were transferred into scintillation vials. The liquid scintillation measurement took place in a model 2000 or 2200CA Tricarb instrument (Packard). Conversion of the measured cpm into dpm was carried out with the aid of a standard quench series.
(§4) The binding parameters were calculated by nonlinear regression in SAS. The algorithms of the program operate in analogy to the LIGAND analysis program (Munson P J and Rodbard D, Analytical Biochem. 107, 220-239 (1980)). The Kd of ^3H-AVP for the recombinant human V1b receptors is 0.4 nM and was used to determine the Ki.

[2] = biological target: T2, human vasopressin V1a receptor (Homo sapiens, UniProt P37288); test: Vasopressin V1a receptor binding assay; details: selectivity quotient, human receptors
T2 construct: expressed in transfected cells; host or cells: CHO-K1 (cell line hV1a_5_CHO), membrane preparation
Procedure: 2. Vasopressin V1a Receptor Binding Assay:
The test substances were dissolved in a concentration of 10^−2 M in DMSO. Further dilution of these DMSO solutions took place in incubation buffer (50 mM Tris, 10 mM MgCl2, 0.1% BSA, pH 7.4).
as §1, with “V1a” for “V1b”, “5)” for “3H2)”
as §2, §3
In the assay mixture (250 μl), membranes (20 μg/ml protein in incubation buffer) from CHO-K1 cells with stably expressed human V1a receptors (cell line hV1a—5_CHO) were incubated with 0.04 nM ^125I-AVP (8-Arg-vasopressin, NEX 128) in incubation buffer (50 mM Tris, 10 mM MgCl2, 0.1% BSA, pH 7.4) (total binding) or additionally with increasing concentrations of test substance (displacement experiment). The nonspecific binding was determined with 1 μM AVP (Bachem #H1780). Triplicate determinations were carried out.
After incubation (60 minutes at room temperature), the free radioligand was filtered off by vacuum filtration (Skatron cell harvester 7000) through Wathman GF/B glass fiber filter mats, and the filters were transferred into scintillation vials.
The liquid scintillation measurement took place in a model 2000 or 2200CA Tricarb instrument (Packard). Conversion of the measured cpm into dpm was carried out with the aid of a standard quench series.
as §4, with “^125I-AVP” for “^3H-AVP”, “hV1a” for “human V1b”, “was determined in saturation experiments. A Kd of 1.33” for “is 0.4”, “nM” for “nM and”

human oxytocin receptors = biological target: T3, human oxytocin receptors (Homo sapiens, UniProt P30559); test: Oxytocin receptor binding assay; details: selectivity quotient
T3 construct: expressed in transfected cells; host or cells: HEK-293, transient expression; lysed and homogenized cells
T3 sequence (P30559 1-389): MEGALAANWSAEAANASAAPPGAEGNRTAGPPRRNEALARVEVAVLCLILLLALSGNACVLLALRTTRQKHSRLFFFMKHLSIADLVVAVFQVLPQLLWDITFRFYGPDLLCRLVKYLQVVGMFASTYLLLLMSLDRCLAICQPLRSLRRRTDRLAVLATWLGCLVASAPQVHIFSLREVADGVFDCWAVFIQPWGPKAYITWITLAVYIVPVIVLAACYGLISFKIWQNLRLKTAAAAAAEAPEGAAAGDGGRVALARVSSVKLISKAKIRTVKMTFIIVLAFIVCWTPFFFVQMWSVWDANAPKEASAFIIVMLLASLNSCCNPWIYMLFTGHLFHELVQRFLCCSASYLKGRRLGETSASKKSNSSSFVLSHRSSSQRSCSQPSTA
Procedure: 4. Oxytocin Receptor Binding Assay
The substances were dissolved in a concentration of 10^−2 M in DMSO and diluted with incubation buffer (50 mM Tris, 10 mM MgCl2, 0.1% BSA, pH 7.4).
Confluent HEK-293 cells with transiently expressing recombinant human oxytocin receptors were centrifuged at 750×g at room temperature for 5 minutes. The residue was taken up in ice-cold lysis buffer (50 mM Tris-HCl, 10% glycerol, pH 7.4 and Roche complete protease inhibitor) and subjected to an osmotic shock at 4° C. for 20 minutes. The lyzed cells were then centrifuged at 750×g at 4° C. for 20 minutes, the residue was taken up in incubation buffer, and aliquots of 10^7 cells/ml were prepared. The aliquots were frozen at −80° C. until used.
On the day of the experiment, the cells were thawed, diluted with incubation buffer and homogenized using a Multipette Combitip (Eppendorf, Hamburg). The reaction mixture of 0.250 ml was composed of 2 to 5×10^4 recombinant cells, 3-4 nM ^3H-oxytocin (PerkinElmer, NET 858) in the presence of test substance (inhibition plot) or only incubation buffer (total binding). The nonspecific binding was determined with 10^−6 M oxytocin (Bachem AG, H2510). Triplicate determinations were set up. Bound and free radioligand were separated by filtration under vacuum with Whatman GF/B glass fiber filters with the aid of a Skatron cell harvester 7000. The bound radioactivity was determined by liquid scintillation measurement in a Tricarb Beta counter, model 2000 or 2200CA (Packard).
The binding parameters were calculated by nonlinear regression analysis (SAS) in analogy to the LIGAND program of Munson and Rodbard (Analytical Biochem 1980; 107: 220-239). The Kd of ^3H-oxytocin for the recombinant hOT receptors is 7.6 nM and was used to determine the Ki.

T2 sequence (P37288 whole entry): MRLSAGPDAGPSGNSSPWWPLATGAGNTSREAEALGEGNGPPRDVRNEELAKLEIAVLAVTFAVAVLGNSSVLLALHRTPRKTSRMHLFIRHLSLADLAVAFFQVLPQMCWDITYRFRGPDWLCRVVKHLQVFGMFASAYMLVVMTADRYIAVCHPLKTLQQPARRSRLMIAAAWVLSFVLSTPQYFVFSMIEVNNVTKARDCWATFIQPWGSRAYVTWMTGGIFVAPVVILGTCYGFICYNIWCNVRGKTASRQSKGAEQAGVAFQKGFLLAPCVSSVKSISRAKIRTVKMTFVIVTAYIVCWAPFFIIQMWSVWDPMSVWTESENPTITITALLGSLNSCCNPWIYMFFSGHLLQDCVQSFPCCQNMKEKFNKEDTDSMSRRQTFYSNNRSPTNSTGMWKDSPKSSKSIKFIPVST

Row | Ki [1] [nM] | Ki(h − V1a)/Ki(h − V1b)* [2] | Ki(h − OT)/Ki(h − V1b)* (human oxytocin receptors) | SMILES
1 | < 1 | ++ (25-75) | +++ (>75) | CCOc1ncccc1C1(OC(=O)N2CCN(C3CCN(C)CC3)CC2)C(=O)N(S(=O)(=O)c2ccccc2OC)c2cc(F)c(Cl)cc21 (stereo not drawn) [Example 43, 5-Chloro-3-(2-ethoxypyridin-3-yl)-6-fluoro-1-(2-methoxyphenylsulfonyl)-2-oxo-2,3-dihydro-1H-indol-3-yl 4-(1-methylpiperidin-4-yl)piperazine-1-carboxylate]
2 | < 1 | + (10-<25) | +++ (>75) | CCOc1ncccc1C1(NC(=O)N2CCC(N3CCN(C)CC3)CC2)C(=O)N(S(=O)(=O)c2ccc(OC)cc2OC)c2cc(F)c(Cl)cc21 (stereo not drawn) [Example 23, 4-(4-Methylpiperazin-1-yl)piperidine-1-[5-chloro-1-(2,4-dimethoxyphenylsulfonyl)-3-(2-ethoxypyridin-3-yl)-6-fluoro-2-oxo-2,3-dihydro-1H-indol-3-yl]carboxamide]
3 | < 1 | + (10-<25) | +++ (>75) | CCOc1ncccc1C1(NC(=O)N2CCC(C3CCN(C)CC3)CC2)C(=O)N(S(=O)(=O)c2ccc(OC)cc2OC)c2cc(F)c(Cl)cc21 (stereo not drawn) [Example 26, 1′-Methyl[4,4′]bipiperidinyl-1-[5-chloro-1-(2,4-dimethoxyphenylsulfonyl)-3-(2-ethoxy-pyridin-3-yl)-6-fluoro-2-oxo-2,3-dihydro-1H-indol-3-yl]carboxamide]
4 | < 1 | +++ (>75) | +++ (>75) | CCOc1ncccc1C1(NC(=O)N2CCN(C3CCN(CC)CC3)CC2)C(=O)N(S(=O)(=O)c2ccc(OC)cc2OC)c2cc(F)c(C#N)cc21 (stereo not drawn) [Example 2, 4-(1-Ethylpiperidin-4-yl)piperazine-1-[5-cyano-1-(2,4-dimethoxyphenylsulfonyl)-3-(2-ethoxypyridin-3-yl)-6-fluoro-2-oxo-2,3-dihydro-1H-indol-3-yl]carboxamide]
5 | 1 to 10 | ++ (25-75) | +++ (>75) | CCOc1ccccc1C1(NC(=O)N2CCN(C3CCN(CC)CC3)CC2)C(=O)N(S(=O)(=O)c2ccccc2)c2cc(F)c(C#N)cc21 (stereo not drawn) [Example 13, 4-(1-Ethylpiperidin-4-yl)piperazine-1-[1-phenylsulfonyl-5-cyano-3-(2-ethoxyphenyl)-6-fluoro-2-oxo-2,3-dihydro-1H-indol-3-yl]carboxamide]
6 | 1 to 10 | + (10-<25) | +++ (>75) | CCOc1ccccc1C1(NC(=O)N2CCC(N3CCN(C)CC3)CC2)C(=O)N(S(=O)(=O)c2ccc(OC)cc2OC)c2cc(F)c(C#N)cc21 (stereo not drawn) [Example 14, 4-(4-Methylpiperazin-1-yl)piperidine-1-[5-cyano-1-(2,4-dimethoxyphenylsulfonyl)-3-(2-ethoxyphenyl)-6-fluoro-2-oxo-2,3-dihydro-1H-indol-3-yl]carboxamide]

Row | SMILES | Ki [1] [nM] | Ki(h − V1a)/Ki(h − V1b)* [2] | Ki(h − OT)/Ki(h − V1b)* (human oxytocin receptors)
7 | CCOc1ncccc1C1(NC(=O)N2CCC(N3CCN(C)CC3)CC2)C(=O)N(S(=O)(=O)c2ccc(OC)cc2)c2cc(F)c(C#N)cc21 (stereo not drawn) [Example 7, 4-(4-Methylpiperazin-1-yl)piperidine-1-[5-cyano-3-(2-ethoxypyridin-3-yl)-6-fluoro-1-(4-methoxyphenylsulfonyl)-2-oxo-2,3-dihydro-1H-indol-3-yl]carboxamide] | 1 to 10 | + (10-<25) | +++ (>75)
8 | CCOc1ccccc1C1(NC(=O)N2CCC(N3CCN(CC)CC3)CC2)C(=O)N(S(=O)(=O)c2ccccc2)c2cc(F)c(C#N)cc21 (stereo not drawn) [Example 18, 4-(4-Ethylpiperazin-1-yl)piperidine-1-[1-phenylsulfonyl-5-cyano-3-(2-ethoxyphenyl)-6-fluoro-2-oxo-2,3-dihydro-1H-indol-3-yl]carboxamide] | 1 to 10 | + (10-<25) | +++ (>75)
9 | CCOc1ncccc1C1(NC(=O)N2CCC(N3CCN(C)CC3)CC2)C(=O)N(S(=O)(=O)c2ccc(OC)cc2OC)c2cc(F)c(F)cc21 (stereo not drawn) [Example 35, 4-(4-Methylpiperazin-1-yl)piperidine-1-[1-(2,4-dimethoxyphenylsulfonyl)-3-(2-ethoxy-pyridin-3-yl)-5,6-difluoro-2-oxo-2,3-dihydro-1H-indol-3-yl]carboxamide] | 1 to 10 | + (10-<25) | + (10-<25)

From patent publication US8546401B2, “5,6-disubstituted oxindole-derivatives and use thereof for treating vasopressin-dependent diseases” (AbbVie Deutschland GmbH & Co. KG, priority 2007, dated 2013)
